Source: publication PMC10507085, “Pharmacological inhibition of TBK1/IKKε blunts immunopathology in a murine model of SARS-CoV-2 infection” (Nature Communications, 2023)

Assays:
Assay in all cases: biochemical
Set-up in all cases: KINOMEscan competition binding, DNA-tagged kinase against immobilised ligand, qPCR read-out
CLK4 = CLK4 (Homo sapiens, UniProt Q9HAZ1); settings: read-out: Percent Control
ACVR1 = ACVR1 (Homo sapiens, UniProt Q04771); settings: read-out: Percent Control
AURKC = AURKC (Homo sapiens, UniProt Q9UQB9); settings: read-out: Percent Control
NEK11 = NEK11 (Homo sapiens, UniProt Q8NG66); settings: read-out: Percent Control
FLT3-autoinhibited = FLT3-autoinhibited (Homo sapiens, UniProt P36888); settings: read-out: Percent Control
PLK2 = PLK2 (Homo sapiens, UniProt Q9NYY3); settings: read-out: Percent Control
Sequence of PLK2 (Q9NYY3 whole entry): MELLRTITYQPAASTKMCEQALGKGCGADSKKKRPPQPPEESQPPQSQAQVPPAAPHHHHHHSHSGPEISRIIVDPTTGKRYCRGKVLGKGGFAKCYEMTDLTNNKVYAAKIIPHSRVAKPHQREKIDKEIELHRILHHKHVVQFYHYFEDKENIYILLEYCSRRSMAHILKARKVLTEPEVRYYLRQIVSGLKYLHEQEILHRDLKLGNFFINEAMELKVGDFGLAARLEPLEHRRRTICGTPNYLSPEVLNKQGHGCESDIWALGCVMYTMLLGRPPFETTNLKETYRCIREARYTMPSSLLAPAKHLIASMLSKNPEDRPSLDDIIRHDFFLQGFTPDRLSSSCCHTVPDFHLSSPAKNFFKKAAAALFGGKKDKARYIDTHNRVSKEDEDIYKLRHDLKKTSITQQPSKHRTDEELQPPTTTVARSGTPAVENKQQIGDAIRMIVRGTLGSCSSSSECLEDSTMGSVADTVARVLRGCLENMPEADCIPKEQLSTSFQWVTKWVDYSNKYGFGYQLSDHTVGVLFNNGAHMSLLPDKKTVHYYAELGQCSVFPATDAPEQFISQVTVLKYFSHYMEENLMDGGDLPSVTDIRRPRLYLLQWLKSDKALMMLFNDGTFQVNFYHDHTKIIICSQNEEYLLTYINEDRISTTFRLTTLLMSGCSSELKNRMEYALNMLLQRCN

[1] = target: T1, RPS6KA4(Kin.Dom.1-N-terminal) (Homo sapiens, UniProt O75676); settings: read-out: Percent Control
T1 construct: Kin.Dom.1 N-terminal
T1 sequence (O75676 whole entry): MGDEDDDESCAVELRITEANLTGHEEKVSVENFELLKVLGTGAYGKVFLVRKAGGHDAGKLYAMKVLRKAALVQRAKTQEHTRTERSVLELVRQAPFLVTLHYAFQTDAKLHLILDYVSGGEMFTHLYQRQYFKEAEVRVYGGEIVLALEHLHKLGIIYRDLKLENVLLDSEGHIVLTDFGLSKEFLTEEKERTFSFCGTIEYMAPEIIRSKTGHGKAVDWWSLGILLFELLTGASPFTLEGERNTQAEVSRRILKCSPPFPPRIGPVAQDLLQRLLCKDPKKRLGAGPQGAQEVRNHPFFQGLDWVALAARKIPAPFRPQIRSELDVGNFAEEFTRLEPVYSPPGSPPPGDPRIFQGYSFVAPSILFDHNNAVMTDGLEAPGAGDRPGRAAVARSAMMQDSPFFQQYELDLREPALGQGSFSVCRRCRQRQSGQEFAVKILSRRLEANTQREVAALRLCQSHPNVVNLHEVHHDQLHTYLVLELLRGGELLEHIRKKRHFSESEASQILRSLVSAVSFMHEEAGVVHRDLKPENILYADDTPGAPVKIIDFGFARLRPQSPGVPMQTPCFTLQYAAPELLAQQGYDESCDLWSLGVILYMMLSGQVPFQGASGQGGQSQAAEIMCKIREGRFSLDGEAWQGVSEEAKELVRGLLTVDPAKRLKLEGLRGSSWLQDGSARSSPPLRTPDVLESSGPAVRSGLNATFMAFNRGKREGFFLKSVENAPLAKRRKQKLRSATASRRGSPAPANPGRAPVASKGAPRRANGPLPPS

MAP3K6 = MAP3K6 (Homo sapiens, UniProt O95382); settings: read-out: Percent Control
MAP3K15 = MAP3K15 (Homo sapiens, UniProt Q6ZN16); settings: read-out: Percent Control
Sequence of MAP3K15 (Q6ZN16 whole entry): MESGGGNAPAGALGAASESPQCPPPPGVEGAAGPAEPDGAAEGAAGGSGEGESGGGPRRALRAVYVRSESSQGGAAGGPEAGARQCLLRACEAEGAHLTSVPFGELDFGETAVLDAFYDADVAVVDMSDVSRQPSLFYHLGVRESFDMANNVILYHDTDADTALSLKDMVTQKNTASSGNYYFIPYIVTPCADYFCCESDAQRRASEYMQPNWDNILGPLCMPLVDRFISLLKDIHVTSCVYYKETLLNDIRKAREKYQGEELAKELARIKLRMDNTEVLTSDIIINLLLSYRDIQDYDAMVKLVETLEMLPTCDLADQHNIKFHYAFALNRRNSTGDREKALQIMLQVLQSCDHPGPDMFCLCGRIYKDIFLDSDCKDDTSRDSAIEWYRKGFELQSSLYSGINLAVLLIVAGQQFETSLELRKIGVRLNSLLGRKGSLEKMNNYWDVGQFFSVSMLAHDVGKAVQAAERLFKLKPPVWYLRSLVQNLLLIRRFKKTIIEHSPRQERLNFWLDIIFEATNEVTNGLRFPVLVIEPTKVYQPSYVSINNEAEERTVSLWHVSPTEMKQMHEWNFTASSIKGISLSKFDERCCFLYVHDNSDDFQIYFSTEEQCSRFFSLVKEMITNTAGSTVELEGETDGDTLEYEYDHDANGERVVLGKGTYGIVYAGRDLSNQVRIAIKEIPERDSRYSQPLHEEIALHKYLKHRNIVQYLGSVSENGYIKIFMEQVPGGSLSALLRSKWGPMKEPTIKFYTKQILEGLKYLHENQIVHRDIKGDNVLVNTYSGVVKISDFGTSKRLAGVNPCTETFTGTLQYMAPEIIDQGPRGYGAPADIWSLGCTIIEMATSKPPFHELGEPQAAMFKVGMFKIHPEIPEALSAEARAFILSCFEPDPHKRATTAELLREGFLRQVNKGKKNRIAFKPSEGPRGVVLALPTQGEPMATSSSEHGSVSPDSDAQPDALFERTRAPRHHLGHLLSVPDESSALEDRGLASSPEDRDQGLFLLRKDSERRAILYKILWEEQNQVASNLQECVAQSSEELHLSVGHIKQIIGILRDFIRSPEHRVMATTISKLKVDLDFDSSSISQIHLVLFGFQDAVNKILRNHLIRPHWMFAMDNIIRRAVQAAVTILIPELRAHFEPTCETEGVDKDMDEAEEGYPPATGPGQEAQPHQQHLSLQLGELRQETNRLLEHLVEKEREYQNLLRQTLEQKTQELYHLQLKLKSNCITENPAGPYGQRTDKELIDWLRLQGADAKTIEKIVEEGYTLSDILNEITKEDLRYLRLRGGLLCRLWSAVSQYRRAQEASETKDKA

MAPK13 = MAPK13 (Homo sapiens, UniProt O15264); settings: read-out: Percent Control
PAK7 = target: T2, PAK7 (Homo sapiens, UniProt Q9P286); settings: read-out: Percent Control
T2 construct: gene PAK5

MST4 = target: T3, MST4 (Homo sapiens, UniProt Q9P289); settings: read-out: Percent Control
T3 construct: gene STK26

GRK4 = GRK4 (Homo sapiens, UniProt P32298); settings: read-out: Percent Control
RET = RET (Homo sapiens, UniProt P07949); settings: read-out: Percent Control
LYN = LYN (Homo sapiens, UniProt P07948); settings: read-out: Percent Control
Sequence of LYN (P07948 whole entry): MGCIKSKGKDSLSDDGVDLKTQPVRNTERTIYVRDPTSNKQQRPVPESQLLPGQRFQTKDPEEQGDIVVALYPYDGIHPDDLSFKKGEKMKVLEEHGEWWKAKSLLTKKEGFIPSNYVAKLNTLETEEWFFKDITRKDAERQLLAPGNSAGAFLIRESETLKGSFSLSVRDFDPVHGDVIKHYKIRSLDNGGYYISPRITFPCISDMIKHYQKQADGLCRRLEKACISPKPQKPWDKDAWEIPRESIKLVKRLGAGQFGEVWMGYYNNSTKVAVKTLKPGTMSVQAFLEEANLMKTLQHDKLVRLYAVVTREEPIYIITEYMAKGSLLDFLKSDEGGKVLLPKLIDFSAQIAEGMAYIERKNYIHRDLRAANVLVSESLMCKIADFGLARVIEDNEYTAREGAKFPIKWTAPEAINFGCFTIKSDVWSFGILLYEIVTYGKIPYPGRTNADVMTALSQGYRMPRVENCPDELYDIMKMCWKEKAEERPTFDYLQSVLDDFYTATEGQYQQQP

CDK19 = CDK19 (Homo sapiens, UniProt Q9BWU1); settings: read-out: Percent Control
Sequence of CDK19 (Q9BWU1 whole entry): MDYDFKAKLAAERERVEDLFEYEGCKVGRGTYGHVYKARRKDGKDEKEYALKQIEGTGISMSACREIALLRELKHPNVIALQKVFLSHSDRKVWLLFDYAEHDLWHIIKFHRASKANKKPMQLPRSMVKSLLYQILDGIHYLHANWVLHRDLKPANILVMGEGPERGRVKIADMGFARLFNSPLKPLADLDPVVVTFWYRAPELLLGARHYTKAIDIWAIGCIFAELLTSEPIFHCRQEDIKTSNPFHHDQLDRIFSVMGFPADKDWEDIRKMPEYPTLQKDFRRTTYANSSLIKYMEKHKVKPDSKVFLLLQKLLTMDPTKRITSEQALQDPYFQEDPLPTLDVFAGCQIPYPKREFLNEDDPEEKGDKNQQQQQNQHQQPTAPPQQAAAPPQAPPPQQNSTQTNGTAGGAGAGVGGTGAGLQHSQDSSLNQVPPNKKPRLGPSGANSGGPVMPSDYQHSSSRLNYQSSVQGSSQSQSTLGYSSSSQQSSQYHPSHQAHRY

PRKACA = PRKACA (Homo sapiens, UniProt P17612); settings: read-out: Percent Control
TAOK1 = TAOK1 (Homo sapiens, UniProt Q7L7X3)
Sequence of TAOK1 (Q7L7X3 whole entry): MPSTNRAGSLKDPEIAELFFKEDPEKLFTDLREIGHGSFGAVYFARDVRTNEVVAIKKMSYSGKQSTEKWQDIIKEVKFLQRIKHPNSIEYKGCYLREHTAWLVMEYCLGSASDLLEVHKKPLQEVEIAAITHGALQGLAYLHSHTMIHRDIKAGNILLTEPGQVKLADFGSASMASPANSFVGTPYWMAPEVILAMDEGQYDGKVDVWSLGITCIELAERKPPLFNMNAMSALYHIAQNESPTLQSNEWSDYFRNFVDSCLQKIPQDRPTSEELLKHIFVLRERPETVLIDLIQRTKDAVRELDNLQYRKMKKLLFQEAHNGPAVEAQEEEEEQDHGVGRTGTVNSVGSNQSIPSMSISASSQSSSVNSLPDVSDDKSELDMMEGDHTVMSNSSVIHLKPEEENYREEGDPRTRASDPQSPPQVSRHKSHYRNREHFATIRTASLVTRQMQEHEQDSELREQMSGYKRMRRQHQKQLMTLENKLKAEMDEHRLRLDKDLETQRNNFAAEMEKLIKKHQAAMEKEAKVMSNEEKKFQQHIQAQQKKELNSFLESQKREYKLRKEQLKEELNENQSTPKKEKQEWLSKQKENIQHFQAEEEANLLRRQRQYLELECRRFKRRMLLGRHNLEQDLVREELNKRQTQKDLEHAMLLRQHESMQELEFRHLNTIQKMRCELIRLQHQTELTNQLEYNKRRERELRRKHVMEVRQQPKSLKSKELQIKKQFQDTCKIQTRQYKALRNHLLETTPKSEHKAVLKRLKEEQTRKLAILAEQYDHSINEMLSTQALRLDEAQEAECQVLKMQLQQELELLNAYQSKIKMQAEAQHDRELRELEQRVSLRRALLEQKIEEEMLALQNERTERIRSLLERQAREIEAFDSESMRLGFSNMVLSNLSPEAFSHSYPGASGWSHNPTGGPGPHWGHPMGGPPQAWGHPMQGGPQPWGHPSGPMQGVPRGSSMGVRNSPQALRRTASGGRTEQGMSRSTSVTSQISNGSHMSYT
Method in brief: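 Competition binding format: the test compound competes with an immobilised ligand for DNA-tagged kinase, and the kinase remaining bound to the ligand is quantified by RT-qPCR. An 11-point 3-fold serial dilution was prepared in 100% DMSO at 100× final concentration, then diluted to 1× in the assay.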

INSRR = INSRR (Homo sapiens, UniProt P14616); settings: read-out: Percent Control
AKT2 = AKT2 (Homo sapiens, UniProt P31751); settings: read-out: Percent Control

Oc1ccc(C2=Cc3ccc(O)cc3OC2)cc1 [compound 1, idronoxil] showed a remaining binding at 10 µM (CLK4) of 36%, a remaining binding at 10 µM (ACVR1) of 74% and a remaining binding at 10 µM (AURKC) of 74%. For the same molecule, the remaining binding at 10 µM (NEK11) was 61%, the remaining binding at 10 µM (FLT3-autoinhibited) was 51% and the remaining binding at 10 µM (PLK2) was 80%. It also gave a remaining binding at 10 µM [1] of 83%, a remaining binding at 10 µM (MAP3K6) of 88% and a remaining binding at 10 µM (MAP3K15) of 100%. The remaining binding at 10 µM (MAPK13) was 100%, the remaining binding at 10 µM (PAK7) was 95% and the remaining binding at 10 µM (MST4) was 90%. The remaining binding at 10 µM (GRK4) was 68%, the remaining binding at 10 µM (RET) was 96% and the remaining binding at 10 µM (LYN) was 71%. It also gave a remaining binding at 10 µM (CDK19) of 99%, a remaining binding at 10 µM (PRKACA) of 78% and a Kd (TAOK1) of 4.7 µM. It also gave a remaining binding at 10 µM (TAOK1; read-out: Percent Control) of 16%, a remaining binding at 10 µM (INSRR) of 94% and a remaining binding at 10 µM (AKT2) of 90%.
